Results published in patent publication US20250171437A1 (Agios Pharmaceuticals,Inc., priority 2022, published 2025).

Target: T1, human PAH with the R408W mutation (A375 R408W cells) (Homo sapiens, UniProt P00439, R408W)
T1 construct: expressed in transfected cells
T1 sequence (P00439 1-452 R408W): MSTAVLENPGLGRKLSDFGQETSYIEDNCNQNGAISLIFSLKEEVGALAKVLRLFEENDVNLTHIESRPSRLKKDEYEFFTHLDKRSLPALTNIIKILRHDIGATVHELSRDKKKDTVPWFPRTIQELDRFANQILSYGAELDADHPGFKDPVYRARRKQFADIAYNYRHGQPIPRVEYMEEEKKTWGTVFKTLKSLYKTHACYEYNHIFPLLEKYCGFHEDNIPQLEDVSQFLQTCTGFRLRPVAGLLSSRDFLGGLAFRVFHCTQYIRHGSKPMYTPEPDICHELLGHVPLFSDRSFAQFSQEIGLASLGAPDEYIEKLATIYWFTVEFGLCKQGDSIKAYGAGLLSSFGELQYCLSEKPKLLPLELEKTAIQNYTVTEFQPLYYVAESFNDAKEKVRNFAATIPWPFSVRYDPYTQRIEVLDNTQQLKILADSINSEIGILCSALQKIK
Assay: Cell Based Phenylalanine Flux Assay
Details: A375 R408W cells; 24 hrs with compound, then 20 μM sepiapterin and 800 μM 13C9,15N-Phenylalanine for 4 hours; 13C-Tyrosine by LC-MS; average where tested multiple times
Method in brief: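 Phenylalanine-to-tyrosine flux is measured in A375 cells carrying stable human R408W PAH. After 24 h compound exposure, 13C9,15N-Phe (800 μM) with sepiapterin (20 μM) is supplied for 4 h and media 13C-Tyr is read by LC-MS; AC50s are binned.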

Compound	AC50
COc1cccc2oc([C@@H]3c4nc[nH]c4CCN3C(=O)c3cnco3)nc12 [Example 621, (S)-(4-(4-methoxybenzo[d]oxazol-2-yl)-6,7-dihydro-1H-imidazo[4,5-c]pyridin-5(4H)-yl)(oxazol-5-yl)methanone]	500 to 1000 nM
COc1cccc2oc([C@H]3c4nc[nH]c4CCN3C(=O)c3cnco3)nc12 [Example 622, (R)-(4-(4-methoxybenzo[d]oxazol-2-yl)-6,7-dihydro-1H-imidazo[4,5-c]pyridin-5(4H)-yl)(oxazol-5-yl)methanone]	1000 to 5000 nM
COc1cccc2oc([C@H]3c4nc[nH]c4CCN3C(=O)c3nnc(-c4ccccn4)o3)nc12 [Example 623, (R)-(4-(4-methoxybenzo[d]oxazol-2-yl)-6,7-dihydro-1H-imidazo[4,5-c]pyridin-5(4H)-yl)(5-(pyridin-2-yl)-1,3,4-oxadiazol-2-yl)methanone]	1000 to 5000 nM
COc1cccc2oc([C@@H]3c4nc[nH]c4CCN3C(=O)c3nnc(-c4ccccn4)o3)nc12 [Example 624, (S)-(4-(4-methoxybenzo[d]oxazol-2-yl)-6,7-dihydro-1H-imidazo[4,5-c]pyridin-5(4H)-yl)(5-(pyridin-2-yl)-1,3,4-oxadiazol-2-yl)methanone]	≤ 500 nM
COc1cccc2oc([C@H]3c4nc[nH]c4CCN3C(=O)c3nnc(-c4cnn(C)c4)o3)nc12 [Example 625, (R)-(4-(4-methoxybenzo[d]oxazol-2-yl)-6,7-dihydro-1H-imidazo[4,5-c]pyridin-5(4H)-yl)(5-(1-methyl-1H-pyrazol-4-yl)-1,3,4-oxadiazol-2-yl)methanone]	1000 to 5000 nM
COc1cccc2oc([C@@H]3c4nc[nH]c4CCN3C(=O)c3nnc(-c4cnn(C)c4)o3)nc12 [Example 626, (S)-(4-(4-methoxybenzo[d]oxazol-2-yl)-6,7-dihydro-1H-imidazo[4,5-c]pyridin-5(4H)-yl)(5-(1-methyl-1H-pyrazol-4-yl)-1,3,4-oxadiazol-2-yl)methanone]	≤ 500 nM
O=C(c1nnc(-c2cnccn2)o1)N1CCc2[nH]cnc2[C@@H]1c1nc2cc(F)ccc2o1 [Example 627, (R)-(4-(5-fluorobenzo[d]oxazol-2-yl)-6,7-dihydro-1H-imidazo[4,5-c]pyridin-5(4H)-yl)(5-(pyrazin-2-yl)-1,3,4-oxadiazol-2-yl)methanone]	1000 to 5000 nM
O=C(c1nnc(-c2cnccn2)o1)N1CCc2[nH]cnc2[C@H]1c1nc2cc(F)ccc2o1 [Example 628, (S)-(4-(5-fluorobenzo[d]oxazol-2-yl)-6,7-dihydro-1H-imidazo[4,5-c]pyridin-5(4H)-yl)(5-(pyrazin-2-yl)-1,3,4-oxadiazol-2-yl)methanone]	1000 to 5000 nM
COc1cccc2oc([C@@H]3c4nc[nH]c4CCN3C(=O)c3nnc(-c4ccn(C)n4)o3)nc12 [Example 639, (S)-(4-(4-methoxybenzo[d]oxazol-2-yl)-6,7-dihydro-1H-imidazo[4,5-c]pyridin-5(4H)-yl)(5-(1-methyl-1H-pyrazol-3-yl)-1,3,4-oxadiazol-2-yl)methanone]	≤ 500 nM
COc1cccc2oc([C@H]3c4nc[nH]c4CCN3C(=O)c3nnc(-c4ccn(C)n4)o3)nc12 [Example 640, (R)-(4-(4-methoxybenzo[d]oxazol-2-yl)-6,7-dihydro-1H-imidazo[4,5-c]pyridin-5(4H)-yl)(5-(1-methyl-1H-pyrazol-3-yl)-1,3,4-oxadiazol-2-yl)methanone]	1000 to 5000 nM

The remaining lines, values ahead:

AC50	Compound
1000 to 5000 nM	CC(F)(F)c1ncoc1C(=O)N1CCc2[nH]cnc2[C@@H]1c1nc2cccc(F)c2o1 [Example 619, (R)-(4-(1,1-difluoroethyl)oxazol-5-yl)(4-(7-fluorobenzo[d]oxazol-2-yl)-6,7-dihydro-1H-imidazo[4,5-c]pyridin-5(4H)-yl)methanone]
≤ 500 nM	CC(F)(F)c1ncoc1C(=O)N1CCc2[nH]cnc2[C@H]1c1nc2cccc(F)c2o1 [Example 620, (S)-(4-(1,1-difluoroethyl)oxazol-5-yl)(4-(7-fluorobenzo[d]oxazol-2-yl)-6,7-dihydro-1H-imidazo[4,5-c]pyridin-5(4H)-yl)methanone]
500 to 1000 nM	O=C(c1nnc(-c2ccccn2)o1)N1CCc2[nH]cnc2[C@H]1c1nc2c(F)c(F)ccc2o1 [Example 629, (S)-(4-(4,5-difluorobenzo[d]oxazol-2-yl)-6,7-dihydro-1H-imidazo[4,5-c]pyridin-5(4H)-yl)(5-(pyridin-2-yl)-1,3,4-oxadiazol-2-yl)methanone]
1000 to 5000 nM	O=C(c1nnc(-c2ccccn2)o1)N1CCc2[nH]cnc2[C@@H]1c1nc2c(F)c(F)ccc2o1 [Example 630, (R)-(4-(4,5-difluorobenzo[d]oxazol-2-yl)-6,7-dihydro-1H-imidazo[4,5-c]pyridin-5(4H)-yl)(5-(pyridin-2-yl)-1,3,4-oxadiazol-2-yl)methanone]
≤ 500 nM	O=C(c1oc(-c2ccc(F)cn2)nc1C(F)F)N1CCc2[nH]cnc2[C@@H]1c1nc2cccc(F)c2o1 [Example 631, (R)-(4-(difluoromethyl)-2-(5-fluoropyridin-2-yl)oxazol-5-yl)(4-(7-fluorobenzo[d]oxazol-2-yl)-6,7-dihydro-1H-imidazo[4,5-c]pyridin-5(4H)-yl)methanone]
≤ 500 nM	O=C(c1oc(-c2ccc(F)cn2)nc1C(F)F)N1CCc2[nH]cnc2[C@H]1c1nc2cccc(F)c2o1 [Example 632, (S)-(4-(difluoromethyl)-2-(5-fluoropyridin-2-yl)oxazol-5-yl)(4-(7-fluorobenzo[d]oxazol-2-yl)-6,7-dihydro-1H-imidazo[4,5-c]pyridin-5(4H)-yl)methanone]
≤ 500 nM	O=C(c1oc(-c2ccc(C(F)(F)F)cn2)nc1C(F)F)N1CCc2[nH]cnc2[C@H]1c1nc2cccc(F)c2o1 [Example 633, (S)-(4-(difluoromethyl)-2-(5-(trifluoromethyl)pyridin-2-yl)oxazol-5-yl)(4-(7-fluorobenzo[d]oxazol-2-yl)-6,7-dihydro-1H-imidazo[4,5-c]pyridin-5(4H)-yl)methanone]
≤ 500 nM	O=C(c1oc(-c2ccc(C(F)(F)F)cn2)nc1C(F)F)N1CCc2[nH]cnc2[C@@H]1c1nc2cccc(F)c2o1 [Example 634, (R)-(4-(difluoromethyl)-2-(5-(trifluoromethyl)pyridin-2-yl)oxazol-5-yl)(4-(7-fluorobenzo[d]oxazol-2-yl)-6,7-dihydro-1H-imidazo[4,5-c]pyridin-5(4H)-yl)methanone]
500 to 1000 nM	Cn1cc(-c2nc(C(F)F)c(C(=O)N3CCc4[nH]cnc4[C@@H]3c3nc4cccc(F)c4o3)o2)cn1 [Example 635, (R)-(4-(difluoromethyl)-2-(1-methyl-1H-pyrazol-4-yl)oxazol-5-yl)(4-(7-fluorobenzo[d]oxazol-2-yl)-6,7-dihydro-1H-imidazo[4,5-c]pyridin-5(4H)-yl)methanone]
≤ 500 nM	Cn1cc(-c2nc(C(F)F)c(C(=O)N3CCc4[nH]cnc4[C@H]3c3nc4cccc(F)c4o3)o2)cn1 [Example 636, (S)-(4-(difluoromethyl)-2-(1-methyl-1H-pyrazol-4-yl)oxazol-5-yl)(4-(7-fluorobenzo[d]oxazol-2-yl)-6,7-dihydro-1H-imidazo[4,5-c]pyridin-5(4H)-yl)methanone]
≤ 500 nM	O=C(c1oc(-c2ccccn2)nc1C(F)(F)F)N1CCc2[nH]cnc2[C@@H]1c1nc2cccc(F)c2o1 [Example 637, (R)-(4-(7-fluorobenzo[d]oxazol-2-yl)-6,7-dihydro-1H-imidazo[4,5-c]pyridin-5(4H)-yl)(2-(pyridin-2-yl)-4-(trifluoromethyl)oxazol-5-yl)methanone]
≤ 500 nM	O=C(c1oc(-c2ccccn2)nc1C(F)(F)F)N1CCc2[nH]cnc2[C@H]1c1nc2cccc(F)c2o1 [Example 638, (S)-(4-(7-fluorobenzo[d]oxazol-2-yl)-6,7-dihydro-1H-imidazo[4,5-c]pyridin-5(4H)-yl)(2-(pyridin-2-yl)-4-(trifluoromethyl)oxazol-5-yl)methanone]
≤ 500 nM	Cn1cnc(-c2nc(C(F)F)c(C(=O)N3CCc4[nH]cnc4[C@H]3c3nc4cc(F)ccc4o3)o2)c1 [Example 641, (S)-(4-(difluoromethyl)-2-(1-methyl-1H-imidazol-4-yl)oxazol-5-yl)(4-(5-fluorobenzo[d]oxazol-2-yl)-6,7-dihydro-1H-imidazo[4,5-c]pyridin-5(4H)-yl)methanone]
1000 to 5000 nM	Cn1cnc(-c2nc(C(F)F)c(C(=O)N3CCc4[nH]cnc4[C@@H]3c3nc4cc(F)ccc4o3)o2)c1 [Example 642, (R)-(4-(difluoromethyl)-2-(1-methyl-1H-imidazol-4-yl)oxazol-5-yl)(4-(5-fluorobenzo[d]oxazol-2-yl)-6,7-dihydro-1H-imidazo[4,5-c]pyridin-5(4H)-yl)methanone]
≤ 500 nM	COc1cc(F)c2oc([C@@H]3c4nc[nH]c4CCN3C(=O)c3oc(C(C)(C)O)nc3C(F)F)nc2c1 [Example 643, (S)-(4-(difluoromethyl)-2-(2-hydroxypropan-2-yl)oxazol-5-yl)(4-(7-fluoro-5-methoxybenzo[d]oxazol-2-yl)-6,7-dihydro-1H-imidazo[4,5-c]pyridin-5(4H)-yl)methanone]
